Measured values published in patent publication US9359395B2, “Prodrugs of steroidal CYP17 inhibitors/antiandrogens” (Tokai Pharmaceuticals, Inc., priority 2009, dated 2016).

How the values were obtained:
[1] = system: androgen-dependent LAPC4 human prostate tumor xenograft; conditions: cited from earlier work; for inhibiting the growth of LAPC4 xenograft: in vivo
AR = conditions: cited from earlier work
[2] = mice, cited from earlier work; for detectability in plasma at 8 hours / peak plasma levels: s.c. 50 mg/kg
[3] = Oral bioavailability in rats; conditions: rat, in vivo, initial studies

| bioavailability [3] [%] | SMILES | reduction in the mean final tumor volume compared with controls ([1]; 50 mg/kg, twice daily, P=0.00065) [%] | efficacy compared with castration ([1]; 50 mg/kg, twice daily) | inhibiting the growth of LAPC4 xenograft [1] | AR antagonist activity (AR) | detectability in plasma at 8 hours [2] | peak plasma levels [2] [ng/mL] | conversion into metabolite ([2]; metabolite tentatively identified as 17-(1H-benzimidazol-1-yl)androsta-3-one) |
| --- | --- | --- | --- | --- | --- | --- | --- | --- |
| ~10 | C[C@]12CC[C@H](O)CC1=CCC1C2CC[C@]2(C)C(n3cnc4ccccc43)=CCC12 (stereo partly drawn) [Compound 5, 3-β-hydroxy-17-(1H-benzimidazole-1-yl)androsta-5,16-diene] | 93.8 | significantly more effective than castration | very effective | potent pure AR antagonists | neither was detectable | 16.82 | rapidly converted into a metabolite |
|  | C[C@]12CCC(=O)C=C1CCC1C2CC[C@]2(C)C(n3cnc4ccccc43)=CCC12 (stereo partly drawn) [Compound 6, 17-(1H-benzimidazole-1-yl)androsta-4,16-diene-3-one] |  |  | ineffective | potent pure AR antagonists | neither was detectable | 5.15 |  |
